Source: US20190231847A1, “TREATMENT OF OCULAR DISEASE” (priority 2016, published 2019)

Columns and labels:
Assay type in all cases: in vivo
[1] = tested on: neovascularisation and inflammation in the injured cornea; assay: ALM201 concentration titration in rat corneal suture model, clinical scoring, Example 4; details: for Vessel density, clinical score compared to PBS control group / Inflammation scoring in comparison to PBS treated group: scored day 7
Protocol: Each rat was anesthetised and two 10-0 sutures were placed intrastromally into the temporal cornea of the left eye, 1.5 mm from the limbus. The sutures were left in place for the entirety of the experiment. The right eye was kept as a no suture control but given the same treatment as the left eye. Treatment began approx. 24 hours after suture placement and continued once a day for 6 days.
(§1) Approximately 24 hours after the last treatment the eyes were imaged and clinically scored. The sutured eyes were scored based on vessel density, vessels distance to suture and inflammation. Vessel density was scored out of three, 0=no density, 1=mild, 2=moderate, 3=high. Vessels distance to suture was scored out of four, 0=no reach, 1=small distance, 2=moderate distance, 3=¾ of the way, 4=reached sutures and inflammation was scored out of three, 0=none, 1=minimal, 2=moderate, 3=severe. After clinical scoring the eyes were enucleated, tissue processed, wax embedded and cut into 5 μm sections while taking care to find the sutured area. Sections were stained with haematoxylin and eosin (H&E) to confirm suture location in each eye and adjacent slides were then used for immunohistochemistry to identify CD44+ cells and FKBPL expression as well NFκB and p-IκBα.

[2] = tested on: infiltrated cells and CD68+ cells in sutured cornea; assay: Histological analysis (H&E, CD68+) of sutured rat eyes, Example 3; details: topical ALM201, day 6 after suture and treatment
Protocol: FIG. 11 Histological analysis by haematoxylin and eosin (H&E) staining showing increased infiltration of cells in control samples (PBS or dexamethasone) compared to treated samples (ALM201, 1 μM or 100 μM) at day 6 after suture and treatment. (A) Haematoxylin and eosin stained sections for each of the experimental groups. White arrows indicate sutures and black arrows show blood vessels (scale bar=500 μm). […] (B) The number of total infiltrated cells and (C) number of CD68+ infiltrated cells in each experimental group was quantitated, with higher numbers of infiltrated cells present in the control group compared to the peptide treated group.
On day 0, sutures where placed into the cornea of rats to induce corneal neovascularisation and inflammation. The eyes were treated for 3 days or 6 days with 16 μl of ALM201 (100 nM and 100 μM) or PBS (vehicle control).
Eyes were enucleated on the 3rd or 6th day one hour after treatment and frozen in gelatine.
Cross sections (10 μm) were taken at the centre of the eye for MSI, adjacent sections were stained with haematoxylin and eosin (H&E).

[3] = tested on: FKBPL; assay: Immunohistochemistry of FKBPL in rat cornea; details: 1 μM ALM201
Protocol: as §1
Sections (5 μm) were stained with haematoxylin and eosin (H&E) to confirm suture location in each eye. Adjacent slides were then used for immunohistochemistry to identify, CD44+ cells and FKBPL expression.

[4] = once a day for 6 days, ALM201 100 μM

IRQQPRDPPTETLELEVSPDPAS (listed as Homo Sapiens) [ALM201]
Inflammation and vessel density scores compared with dexamethasone ([1]; ALM201 100 μM): significant difference in scores
Vessel density, clinical score compared to PBS control group ([1]; once a day for 6 days, ALM201 1 μM, dexamethasone positive control): significant decrease
Vessel density, clinical score compared to PBS control group ([1]; once a day for 6 days, ALM201 10 μM): significant decrease
Inflammation scoring in comparison to PBS treated group ([1]; once a day for 6 days, ALM201 10 μM, dexamethasone positive control): significant difference
Inflammation scoring in comparison to PBS treated group [1, 4]: significant difference
Vessel density, clinical score compared to PBS control group [1, 4]: significant decrease
Vessel distance to sutures, clinical score compared to PBS vehicle control ([1]; once a day for 6 days, scored day 7 after suture, ALM201 1 μM, dexamethasone positive control): significantly different
Most effective concentrations in preventing angiogenesis and inflammation ([1]; titration 0.01 μM to 100 μM): 1 µM and 10 µM
CD68+ cell infiltrates compared to PBS-treated and dexamethasone-treated animals [2]: reduced
Neovascularisation in histological analysis compared to controls [2]: decreased neovascularisation
Total cell infiltrates compared to PBS-treated and dexamethasone-treated animals [2]: reduced total cell infiltrates
FKBPL expression in the corneal epithelium and stroma in comparison with PBS treated sutured corneas and normal corneas [3]: increased
